Data: ChEMBL document CHEMBL4002617, “Antifungal activity of substituted aurones” (Bioorg Med Chem Lett, 2017)
Calls of active or inactive are those of the source. The calls are words filed in the database; no cut-off is given here.

What was measured:
Format in all cases: functional
Candida albicans [1] = assay: Antifungal activity against Candida albicans ATCC 90028 at 100 uM after 24 hrs by PrestoBlue dye based microdilution broth assay relative to control; settings: ATCC 90028, 24 h
Candida albicans [2] = assay: Antifungal activity against Candida albicans ATCC 90028 after 24 hrs by PrestoBlue dye based microdilution broth assay; settings: ATCC 90028, 24 h
Nakaseomyces glabratus = assay: Antifungal activity against Candida glabrata ATCC 66032 after 24 hrs by PrestoBlue dye based microdilution broth assay; settings: ATCC 66032, 24 h
Candida tropicalis = assay: Antifungal activity against Candida tropicalis ATCC 750 after 24 hrs by PrestoBlue dye based microdilution broth assay; settings: ATCC 750, 24 h
Candida albicans [3] = assay: Antibiofilm activity against Candida albicans ATCC 90028 intermediate phase biofilm at 16 ug/ml after 24 hrs by calcofluor white dye based fluorescent microscopic analysis
Candida albicans [4] = assay: Antibiofilm activity against Candida albicans ATCC 90028 intermediate phase biofilm at 100 ug/ml after 24 hrs by calcofluor white dye based fluorescent microscopic analysis
Candida albicans [5] = assay: Antibiofilm activity against Candida albicans ATCC 90028 intermediate phase biofilm at antifungal IC50 to IC99 after 24 hrs by calcofluor white dye based fluorescent microscopic analysis
Candida albicans [6] = assay: Antibiofilm activity against Candida albicans ATCC 90028 intermediate phase biofilm at 2 ug/ml after 24 hrs by calcofluor white dye based fluorescent microscopic analysis

| Compound | inhibition at 100 µM (Candida albicans [1]) [%] | other results |
| --- | --- | --- |
| COc1cc(/C=C2\Oc3ccccc3C2=O)ccc1O | 11.2 | – |
| COc1cccc(/C=C2\Oc3ccccc3C2=O)c1O | 16.7 | – |
| COc1ccc(/C=C2\Oc3c(ccc(O)c3O)C2=O)cc1O | 99.4 | IC50 (Candida albicans [2]): 16 µM; IC99 (Candida albicans [2]): 100 µM; IC50 (Nakaseomyces glabratus): 11 µM; IC50 (Candida tropicalis): 10 µM; Activity (Candida albicans [3]): inactive; Activity (Candida albicans [4]): Active |
| COc1cc(Br)c(/C=C2\Oc3ccccc3C2=O)cc1OC | 12.5 | – |
| O=C1/C(=C/c2ncc[nH]2)Oc2ccccc21 | 43.9 | – |
| COc1ccc(/C=C2\Oc3cc(O)ccc3C2=O)cc1O | 40 | – |
| COc1ccc(/C=C2\Oc3ccccc3C2=O)cc1OC [3',4'-DIMETHOXY-AURONE] | 14.2 | – |
| COc1ccc(/C=C2\Oc3ccccc3C2=O)cc1O | 45.6 | – |
| O=C1/C(=C/c2ccccn2)Oc2ccccc21 | – | IC50 (Candida albicans [2]): 18 µM; IC50 (Nakaseomyces glabratus): 10 µM; IC50 (Candida tropicalis): 12 µM; Activity (Candida albicans [5]): inactive |
| O=C1/C(=C/c2cccs2)Oc2c1ccc(O)c2O | 26 | – |
| O=C1/C(=C/c2ccc[nH]2)Oc2c1ccc(O)c2O | 27.5 | – |
| O=C1/C(=C/c2ccccc2O)Oc2ccccc21 | 1 | – |
| O=C1/C(=C/c2ccc[nH]2)Oc2ccccc21 | 78.8 | – |
| C[C@@H]1[C@H](O)[C@@H](C)/C=C/C=C/C=C/C=C/C=C/C=C/C=C/[C@H](O[C@@H]2O[C@H](C)[C@@H](O)[C@H](N)[C@@H]2O)C[C@@H]2O[C@](O)(C[C@@H](O)C[C@@H](O)[C@H](O)CC[C@@H](O)C[C@@H](O)CC(=O)O[C@H]1C)C[C@H](O)[C@H]2C(=O)O | – | Activity (Candida albicans [6]): Active |
